Reference: US8097443B2, “Nucleotidyltransferases with enhanced nucleotide triphosphate flexibility” (priority 2007, dated 2012)
Where two headings read alike, the source gives them in different places.

Columns and labels:
[1] = target: T1, RmlA Q83S (Salmonella typhimurium, UniProt P26393, Q83S); assay: Pseudo first order kinetics of RmlA Q83S mutant; type: biochemical, Salmonella enterica typhimurium LT2; conditions: 10 mM glucose-1-phosphate, 0.05-25 μM enzyme, [NTP] + 5 mM MgCl2, 100 mM Tris-HCl pH 8.0, 37° C.; for Km: read-out: KM^app
T1 construct: His6 (pET28a) (N); made in house; host or cells: Escherichia coli BL21 (DE3)
Source text: (§1) Driven by these mutant plasmids, the corresponding RmlA variants were subsequently expressed and purified as described above.
(§2) Enzymatic Reactions—The enzyme assay was accomplished via slight modification of previously reported methods (Jiang et al. (2000) J. Am. Chem. Soc. 122, 6803-6804; Jiang et al. (2001) Angew. Chem., Int. Ed. 40, 1502-1505; Jiang et al. (2003) Chem Bio Chem 4, 443-446; Barton et al. (2002) Proc. Natl. Acad. Sci. U.S.A. 99, 13397-13402). In a typical reaction, sugar-1-phosphate (10 mM final) and enzyme (0.01-50 μM) were mixed with NTP (0.01-40 mM) in the presence of MgCl2 ([NTP]+5 mM) and 10 U/mL inorganic pyrophosphatase (Sigma, St. Louis, Mo., USA) in 100 mM Tris HCl, pH 8.0 (20 μL final volume). Typical reactions were analyzed after 10 min at 37° C. and reaction times were extended for some slow reacting sugar/NTP combinations. Reactions were stopped by the addition of 80 μL prewarmed HPLC buffer and heat inactivation (95° C., 5 min). The amount of enzyme used and the incubation time was adjusted so that the reactions never proceeded to more than 10% turnover for kinetics, or 30% for activity assays.
(§3) Product Characterization—Reactions were analyzed via analytical HPLC (Supelcosil LC18-T; Supelco, Bellefonte, Pa.; 5 μm, 250×3 mm, 40 mM phosphoric acid, pH 6.5 with triethylamine, with a gradient of 0-10% MeOH over 20 min, 0.8 mL/min, A254). Due to earlier elution, a 5 min 0% MeOH isocratic hold was performed prior to starting the gradient for CTP-containing reactions.
(§4) Kinetic Measurements—Pseudo first order kinetics were obtained by fixing glucose-1-phosphate at a saturating concentration of 10 mM (Barton et al. (2001) Nat Struct Biol 8, 545-551), and titrating NTPs. At least eight different concentrations in the range of ¼×KM to 4×KM (0.09-20 mM for dTTP, 0.2-40 mM for others) were assayed in triplicate. […] Activities were corrected for time and enzyme concentrations, and the kinetic curves were fit to the Michaelis-Menton equation using SigmaPlot with the Enzyme Kinetics module (SPSS, Chicago, Ill., USA).

[2] = target: ST0452 (Sulfurisphaera tokodaii, UniProt Q975F9); conditions: Sulfolobus tokodaii ST0452, literature; cited from earlier work
[3] = target: T2, RmlA Q83A (Salmonella typhimurium, UniProt P26393, Q83A); assay: Relative activity of RmlA mutant Q83A with alternative NTPs; type: biochemical, Salmonella enterica typhimurium LT2; conditions: 10 mM Glucose-1-phosphate, 0.1-10 μM enzyme, 5 mM NTP, 10 mM MgCl2, pH 8.0, 37° C.
T2 construct: His6 (pET28a) (N); made in house; host or cells: Escherichia coli BL21 (DE3)
Source text: (§5) RmlA mutagenesis—RmlA mutants were generated with the Quikchange mutagenesis kit (Stratagene, La Jolla, Calif., USA) using the wt RmlA-pET28a parent expression plasmid as the template and the primers indicated in Table 1. Individual progeny plasmids were confirmed by DNA sequencing to carry the desired mutations. Driven by these mutant plasmids, the corresponding RmlA variants were subsequently expressed and purified as described above.
as §2
as §3, with “reactions. For nucleotide sugar products with commercially available standards, HPLC peak identity was confirmed by co-elution.” for “reactions.”

[4] = system: UDP-sugar pyrophosphorylase (Usp); conditions: Thermus caldophilus Usp, literature; cited from earlier work
[5] = target: T3, RmlA Q83N (Salmonella typhimurium, UniProt P26393, Q83N); assay: Relative activity of RmlA mutant Q83N with alternative NTPs; type: biochemical, Salmonella enterica typhimurium LT2; conditions: 10 mM Glucose-1-phosphate, 0.1-10 μM enzyme, 5 mM NTP, 10 mM MgCl2, pH 8.0, 37° C.
T3 construct: His6 (pET28a) (N); made in house; host or cells: Escherichia coli BL21 (DE3)
Source text: as §5, §2
as §3, with “reactions. For nucleotide sugar products with commercially available standards, HPLC peak identity was confirmed by co-elution.” for “reactions.”

[6] = target: T4, RmlA Q83E (Salmonella typhimurium, UniProt P26393, Q83E); assay: Relative activity of RmlA mutant Q83E with alternative NTPs; type: biochemical, Salmonella enterica typhimurium LT2; conditions: 10 mM Glucose-1-phosphate, 0.1-10 μM enzyme, 5 mM NTP, 10 mM MgCl2, pH 8.0, 37° C.
T4 construct: His6 (pET28a) (N); made in house; host or cells: Escherichia coli BL21 (DE3)
Source text: as §5, §2
as §3, with “reactions. For nucleotide sugar products with commercially available standards, HPLC peak identity was confirmed by co-elution.” for “reactions.”

[7] = target: wt RmlA (glucose-1-phosphate thymidylyltransferase) (Salmonella typhimurium, UniProt P26393)
Method: as §2, §3, §4

[8] = target: T5, RmlA Q83D (Salmonella typhimurium, UniProt P26393, Q83D); assay: Relative activity of RmlA mutant Q83D with alternative NTPs; type: biochemical, Salmonella enterica typhimurium LT2; conditions: 10 mM Glucose-1-phosphate, 0.1-10 μM enzyme, 5 mM NTP, 10 mM MgCl2, pH 8.0, 37° C.
T5 construct: using BSA as a standard, and a molecular mass of 34.6 kDa; His6 (pET28a) (N); made in house; host or cells: Escherichia coli BL21 (DE3)
Source text: as §5, §2
as §3, with “reactions. For nucleotide sugar products with commercially available standards, HPLC peak identity was confirmed by co-elution.” for “reactions.”

[9] = target: T1, RmlA Q83S; assay: Relative activity of RmlA mutant Q83S with alternative NTPs; type: biochemical, Salmonella enterica typhimurium LT2; conditions: 10 mM Glucose-1-phosphate, 0.1-10 μM enzyme, 5 mM NTP, 10 mM MgCl2, pH 8.0, 37° C.
Source text: as §5, §2
as §3, with “reactions. For nucleotide sugar products with commercially available standards, HPLC peak identity was confirmed by co-elution.” for “reactions.”

[10] = target: T5, RmlA Q83D; assay: Pseudo first order kinetics of RmlA Q83D mutant; type: biochemical, Salmonella enterica typhimurium LT2; conditions: for kcat^app / Km: 10 mM glucose-1-phosphate, 0.05-25 μM enzyme, [NTP] + 5 mM MgCl2, 100 mM Tris-HCl pH 8.0, 37° C.; for Km: read-out: KM^app
Source text: as §1, §2, §3, §4

T5 sequence (P26393 whole entry Q83D): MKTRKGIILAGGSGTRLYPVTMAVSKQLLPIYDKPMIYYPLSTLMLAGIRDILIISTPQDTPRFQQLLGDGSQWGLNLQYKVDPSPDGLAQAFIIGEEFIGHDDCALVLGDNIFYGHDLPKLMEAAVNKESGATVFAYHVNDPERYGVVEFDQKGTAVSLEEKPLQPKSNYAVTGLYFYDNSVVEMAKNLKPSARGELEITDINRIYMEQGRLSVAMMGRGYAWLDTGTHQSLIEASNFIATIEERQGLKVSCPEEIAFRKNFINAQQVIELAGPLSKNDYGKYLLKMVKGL
T1 sequence (P26393 whole entry Q83S): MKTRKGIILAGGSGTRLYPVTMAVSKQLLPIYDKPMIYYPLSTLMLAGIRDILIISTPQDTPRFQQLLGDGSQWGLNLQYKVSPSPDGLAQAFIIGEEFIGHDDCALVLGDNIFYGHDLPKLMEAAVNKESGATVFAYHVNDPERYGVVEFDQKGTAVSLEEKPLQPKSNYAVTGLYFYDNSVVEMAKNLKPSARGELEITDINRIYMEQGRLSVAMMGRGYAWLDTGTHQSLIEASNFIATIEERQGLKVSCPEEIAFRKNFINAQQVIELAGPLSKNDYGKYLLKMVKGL
T3 sequence (P26393 whole entry Q83N): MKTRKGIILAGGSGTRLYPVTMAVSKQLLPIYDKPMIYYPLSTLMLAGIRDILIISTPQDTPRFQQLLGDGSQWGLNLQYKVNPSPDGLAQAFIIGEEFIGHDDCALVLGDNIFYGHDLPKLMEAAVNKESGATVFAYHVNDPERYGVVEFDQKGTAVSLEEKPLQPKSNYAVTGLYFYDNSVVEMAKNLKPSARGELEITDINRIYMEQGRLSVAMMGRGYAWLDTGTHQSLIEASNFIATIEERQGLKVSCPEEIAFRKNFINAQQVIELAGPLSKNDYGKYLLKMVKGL
T4 sequence (P26393 whole entry Q83E): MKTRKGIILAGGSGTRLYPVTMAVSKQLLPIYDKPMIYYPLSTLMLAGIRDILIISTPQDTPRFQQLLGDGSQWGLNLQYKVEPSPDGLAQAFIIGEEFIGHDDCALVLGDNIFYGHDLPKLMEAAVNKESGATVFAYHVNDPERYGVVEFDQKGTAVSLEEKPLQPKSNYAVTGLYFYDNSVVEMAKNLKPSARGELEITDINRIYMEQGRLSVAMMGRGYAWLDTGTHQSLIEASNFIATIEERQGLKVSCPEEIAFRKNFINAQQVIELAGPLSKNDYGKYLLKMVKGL
Chain of ST0452 (Q975F9 whole entry): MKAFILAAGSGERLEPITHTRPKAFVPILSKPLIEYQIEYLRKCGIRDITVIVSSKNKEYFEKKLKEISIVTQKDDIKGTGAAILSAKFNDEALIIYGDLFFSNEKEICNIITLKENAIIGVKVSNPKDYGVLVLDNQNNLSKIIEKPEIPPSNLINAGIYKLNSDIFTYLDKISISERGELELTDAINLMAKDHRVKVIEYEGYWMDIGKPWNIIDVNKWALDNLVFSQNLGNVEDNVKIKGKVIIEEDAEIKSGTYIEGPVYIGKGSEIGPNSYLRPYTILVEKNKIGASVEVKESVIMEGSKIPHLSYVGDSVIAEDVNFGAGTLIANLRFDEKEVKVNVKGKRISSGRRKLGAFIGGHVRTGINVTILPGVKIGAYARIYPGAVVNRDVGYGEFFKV
T2 sequence (P26393 whole entry Q83A): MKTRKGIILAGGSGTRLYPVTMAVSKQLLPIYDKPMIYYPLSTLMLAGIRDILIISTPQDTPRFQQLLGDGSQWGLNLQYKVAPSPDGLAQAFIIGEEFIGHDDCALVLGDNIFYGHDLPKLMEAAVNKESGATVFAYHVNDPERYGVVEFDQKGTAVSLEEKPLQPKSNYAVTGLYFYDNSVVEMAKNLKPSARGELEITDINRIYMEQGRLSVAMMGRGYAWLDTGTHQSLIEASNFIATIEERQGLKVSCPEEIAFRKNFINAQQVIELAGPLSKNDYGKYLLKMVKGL
Chain of wt RmlA (glucose-1-phosphate thymidylyltransferase) (P26393 whole entry): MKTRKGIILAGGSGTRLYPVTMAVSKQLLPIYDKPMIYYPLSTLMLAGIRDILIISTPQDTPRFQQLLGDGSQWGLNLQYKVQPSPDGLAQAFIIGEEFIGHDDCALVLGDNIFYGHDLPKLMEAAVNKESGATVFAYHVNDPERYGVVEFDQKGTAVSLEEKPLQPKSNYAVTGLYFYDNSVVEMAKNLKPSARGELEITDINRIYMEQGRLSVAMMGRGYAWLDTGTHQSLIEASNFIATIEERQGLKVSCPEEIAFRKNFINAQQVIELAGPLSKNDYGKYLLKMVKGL

Compound	kcat^app [1] [s⁻¹]	Km [1] [µM]	utilization of NTP by ST0452 [2]	Relative activity of Q83A as compared to wt RmlA [3]	turnover of glucose-1-phosphate with NTP by Usp [4]	Relative activity of Q83N as compared to wt RmlA [5]	Relative activity of Q83E as compared to wt RmlA [6]	reduction in the apparent RmlA specificity constant (kcat/KM) versus dTTP [7]	Relative activity of Q83D as compared to wt RmlA [8]	Relative activity of Q83S as compared to wt RmlA [9]	improvement in apparent KM, Q83D versus wild-type [10] [fold]	kcat^app [10] [s⁻¹]	Km [10] [µM]	reduction in the apparent RmlA specificity constant (kcat/KM) versus dTTP ([7]; wild-type RmlA, glucose-1-phosphate) [fold]	kcat^app ([7]; Wild-type RmlA, 10 mM glucose-1-phosphate, 0.05-25 μM enzyme, [NTP] + 5 mM MgCl2, 100 mM Tris-HCl pH 8.0, 37° C.) [s⁻¹]	Km ([7]; read-out: KM^app, Wild-type RmlA, 10 mM glucose-1-phosphate, 0.05-25 μM enzyme, [NTP] + 5 mM MgCl2, 100 mM Tris-HCl pH 8.0, 37° C.) [µM]	increase in KM, Q83D versus wild-type [10] [fold]
Nc1ncnc2c1ncn2[C@@H]1O[C@H](COP(=O)(O)OP(=O)(O)OP(=O)(O)O)[C@@H](O)[C@H]1O [ATP, adenosine-5′-triphosphate]	0.48 ± 0.0233	3400 ± 600	could not utilize	7.9	turn over	6.5	0.7	> 15,000 fold	0.6	14.0	–	–	–	–	–	–	–
Nc1ccn([C@@H]2O[C@H](COP(=O)(O)OP(=O)(O)OP(=O)(O)O)[C@@H](O)[C@H]2O)c(=O)n1 [CTP, cytidine-5′-triphosphate]	–	–	could not utilize	1.3	turn over	0.7	0.8	–	0.2	1.5	–	–	–	–	–	–	–
Nc1nc2c(ncn2[C@@H]2O[C@H](COP(=O)(O)OP(=O)(O)OP(=O)(O)O)[C@@H](O)[C@H]2O)c(=O)[nH]1 [GTP, guanosine-5′-triphosphate]	–	–	could not utilize	0.7	turn over	0.2	2.8	–	3.7	2.2	6.5	0.213 ± 0.015	1300 ± 400	–	–	–	–
O=c1ccn([C@@H]2O[C@H](COP(=O)(O)OP(=O)(O)OP(=O)(O)O)[C@@H](O)[C@H]2O)c(=O)[nH]1 [UTP, uridine-5′-triphosphate]	–	–	good activity	0.2	turn over	0.2	1.3	–	0.2	0.2	–	–	–	~12	–	–	–
Nc1ncnc2c1ncn2[C@H]1C[C@H](O)[C@@H](COP(=O)(O)OP(=O)(O)OP(=O)(O)O)O1 [dATP, 2′-deoxyadenosine-5′-triphosphate]	5.33 ± 0.333	1100 ± 300	good activity	4.6	–	3.8	0.4	–	0.8	7.9	–	–	–	–	–	–	–
Nc1ccn([C@H]2C[C@H](O)[C@@H](COP(=O)(O)OP(=O)(O)OP(=O)(O)O)O2)c(=O)n1 [dCTP, 2′-deoxycytidine-5′-triphosphate]	–	–	good activity	0.8	–	–	1.1	–	1.2	1.4	–	–	–	–	–	–	–
Nc1nc2c(ncn2[C@H]2C[C@H](O)[C@@H](COP(=O)(O)OP(=O)(O)OP(=O)(O)O)O2)c(=O)[nH]1 [dGTP, 2′-deoxyguanosine-5′-triphosphate]	–	–	good activity	0.2	–	0.1	1.7	–	1.6	0.6	–	5 ± 0.333	11500 ± 1800	–	–	–	–
Cc1cn([C@H]2C[C@H](O)[C@@H](COP(=O)(O)OP(=O)(O)OP(=O)(O)O)O2)c(=O)[nH]c1=O [dTTP, 2′deoxythymidine-5′-triphosphate]	6.33 ± 0.5	2400 ± 600	good activity	0.2	turn over	0.3	1.0	–	0.2	0.3	–	3.62 ± 0.233	6200 ± 1200	–	30.83 ± 0.667	290 ± 40	21
